Data published in ChEMBL document CHEMBL1201862, “PubChem BioAssay data set” (2004).
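Cells were grown in 96-well plates and exposed to each compound for 48 hours at five concentrations; endpoints were interpolated linearly between bracketing concentrations, or set to the highest concentration if not reached. Here, GI50 denotes the concentration required for 50% inhibition of growth.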 Activity calls are given as the source filed them. Rule as the data show it: active = GI50 up to about 1.1 µM and inactive = higher.

How the values were obtained:
Experiment in all cases: growth of human tumour cells (NCI), 48 h
DLD-1 = tested on: DLD-1
RXF 631 = tested on: RXF 631
DMS-273 = tested on: DMS-273
KM-20L2 = tested on: KM-20L2
LXFL 529 = tested on: LXFL 529
SNB-78 = tested on: SNB-78
XF498 = tested on: XF498
HOP-18 = tested on: HOP-18
DMS-114 = tested on: DMS-114

Measured: GI50

CN(Cc1ccccc1)c1nc(=[N+](C)C)ss1
inactive: DLD-1 > 100 µM | RXF 631 67.5 µM | DMS-273 60.7 µM | KM-20L2 > 100 µM | LXFL 529 71.6 µM | SNB-78 > 100 µM | XF498 > 100 µM | HOP-18 > 100 µM | DMS-114 20.3 µM

COc1ccc2c(c1)C(CCN)C(=O)N2 (stereo unspecified)
inactive: DLD-1 > 100 µM | RXF 631 > 100 µM | DMS-273 > 100 µM | KM-20L2 > 100 µM | LXFL 529 > 100 µM | SNB-78 > 100 µM | XF498 > 100 µM | HOP-18 > 100 µM | DMS-114 > 100 µM

COc1ccc(C2=NOP(c3ccccc3)(c3ccccc3)(c3ccccc3)C2)cc1
inactive: DLD-1 20.8 µM | RXF 631 22.4 µM | DMS-273 16.6 µM | KM-20L2 10 µM | LXFL 529 5.57 µM | SNB-78 36.5 µM | XF498 20.7 µM | HOP-18 24.9 µM | DMS-114 8.61 µM

CC(=O)O[C@H]1CCC2[C@@H]3CCC4Nc5c(cnn5-c5ccccc5)C[C@]4(C)C3CC[C@@]21C (stereo partly specified)
inactive: DLD-1 32.7 µM | RXF 631 14.9 µM | DMS-273 3.18 µM | KM-20L2 8 µM | LXFL 529 12.6 µM | SNB-78 14.4 µM | XF498 6.52 µM | HOP-18 31.8 µM | DMS-114 11.7 µM
